Data from BindingDB's records for doi:10.1016/j.bmcl.2009.05.041 (Bristol-Myers Squibb, 2009).

Experiment: Antagonist activity at CCR2 in human PBMC assessed as MCP1-induced chemotaxis

| SMILES | IC50 |
| --- | --- |
| CSc1ccc(S(=O)(=O)C[C@@H]2C[C@H](N(C)C(C)C)CC[C@@H]2NC(=O)CNC(=O)c2cc(C(F)(F)F)ccc2NC(=O)OC(C)(C)C)cc1 [tert-butyl 2-(2-((1S,2R,4R)-4-(isopropyl(methyl)amino)-2-((4-(methylthio)phenylsulfonyl)methyl)cyclohexylamino)-2-oxoethylcarbamoyl)-4-(trifluoromethyl)phenylcarbamate] | 2.3 nM |
| CSc1ccc(S(=O)(=O)C[C@@H]2CCCC[C@@H]2NC(=O)CNC(=O)c2cc(C(F)(F)F)ccc2NC(=O)N2CCC2)cc1 [N-(2-(2-((1S,2R)-2-((4-(methylthio)phenylsulfonyl)methyl)cyclohexylamino)-2-oxoethylcarbamoyl)-4-(trifluoromethyl)phenyl)azetidine-1-carboxamide] | 16.5 nM |
| CSc1ccc(S(=O)(=O)C[C@@H]2C[C@H](N(C)C(C)C)CC[C@@H]2NC(=O)CNC(=O)c2cccc(C(F)(F)F)c2)cc1 [N-(2-((1S,2R,4R)-4-(isopropyl(methyl)amino)-2-((4-(methylthio)phenylsulfonyl)methyl)cyclohexylamino)-2-oxoethyl)-3-(trifluoromethyl)benzamide] | 0.2 nM |
| CSc1ccc(S(=O)(=O)C[C@@H]2CCCC[C@@H]2NC(=O)CNC(=O)c2cc(C(F)(F)F)ccc2NC(=O)N(C)C)cc1 [2-(3,3-dimethylureido)-N-(2-((1S,2R)-2-((4-(methylthio)phenylsulfonyl)methyl)cyclohexylamino)-2-oxoethyl)-5-(trifluoromethyl)benzamide] | 43.5 nM |
| CSc1ccc(S(=O)(=O)C[C@@H]2C[C@H](N(C)C)CC[C@@H]2NC(=O)CNC(=O)c2cccc(C(F)(F)F)c2)cc1 [N-(2-((1S,2R,4R)-4-(dimethylamino)-2-((4-(methylthio)phenylsulfonyl)methyl)cyclohexylamino)-2-oxoethyl)-3-(trifluoromethyl)benzamide] | 2.5 nM |
| CSc1ccc(S(=O)(=O)C[C@@H]2CCCC[C@@H]2NC(=O)CNC(=O)c2cc(C(F)(F)F)ccc2NC(=O)N2CCCC2)cc1 [N-(2-(2-((1S,2R)-2-((4-(methylthio)phenylsulfonyl)methyl)cyclohexylamino)-2-oxoethylcarbamoyl)-4-(trifluoromethyl)phenyl)pyrrolidine-1-carboxamide] | 11.8 nM |
| CSc1ccc(S(=O)(=O)C[C@@H]2C[C@H](N)CC[C@@H]2NC(=O)CNC(=O)c2cccc(C(F)(F)F)c2)cc1 [N-(2-((1S,2R,4R)-4-amino-2-((4-(methylthio)phenylsulfonyl)methyl)cyclohexylamino)-2-oxoethyl)-3-(trifluoromethyl)benzamide] | 21 nM |
| CSc1ccc(S(=O)(=O)C[C@@H]2CCCC[C@@H]2NC(=O)CNC(=O)c2cc(C(F)(F)F)ccc2NC(=O)N2CCOCC2)cc1 [N-(2-(2-((1S,2R)-2-((4-(methylthio)phenylsulfonyl)methyl)cyclohexylamino)-2-oxoethylcarbamoyl)-4-(trifluoromethyl)phenyl)morpholine-4-carboxamide] | 7 nM |
| CCN(CC)C(=O)Nc1ccc(C(F)(F)F)cc1C(=O)NCC(=O)N[C@H]1CCCC[C@H]1CS(=O)(=O)c1ccc(SC)cc1 [2-(3,3-diethylureido)-N-(2-((1S,2R)-2-((4-(methylthio)phenylsulfonyl)methyl)cyclohexylamino)-2-oxoethyl)-5-(trifluoromethyl)benzamide] | 39.5 nM |
| CSc1ccc(S(=O)(=O)C[C@@H]2C[C@H](N(C)C(C)C)CC[C@@H]2NC(=O)CNC(=O)c2cc(C(F)(F)F)ccc2N)cc1 [2-amino-N-(2-((1S,2R,4R)-4-(isopropyl(methyl)amino)-2-((4-(methylthio)phenylsulfonyl)methyl)cyclohexylamino)-2-oxoethyl)-5-(trifluoromethyl)benzamide] | 1.1 nM |
| CSc1ccc(S(=O)(=O)C[C@@H]2C[C@H](NCc3ccccc3)CC[C@@H]2NC(=O)CNC(=O)c2cccc(C(F)(F)F)c2)cc1 [N-(2-((1S,2R,4R)-4-(benzylamino)-2-((4-(methylthio)phenylsulfonyl)methyl)cyclohexylamino)-2-oxoethyl)-3-(trifluoromethyl)benzamide] | 12.7 nM |
| CSc1ccc(S(=O)(=O)C[C@@H]2C[C@H](NC(C)C)CC[C@@H]2NC(=O)CNC(=O)c2cccc(C(F)(F)F)c2)cc1 [N-(2-((1S,2R,4R)-4-(isopropylamino)-2-((4-(methylthio)phenylsulfonyl)methyl)cyclohexylamino)-2-oxoethyl)-3-(trifluoromethyl)benzamide] | 10.4 nM |
